Measured values from PubChem BioAssay AID1259411 (Chemical Carcinogenesis Research Information System (CCRIS), 2018).
Active and inactive are the calls of the source. No rule for the calls is given here.

Tested on: rodent carcinogenicity bioassays, tumor incidence
Assay: CCRIS carcinogenicity studies
In short: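 Archive of carcinogenicity, mutagenicity, tumor promotion and tumor inhibition results drawn from journals, NCI reports and other sources, expert-reviewed; covers 1985-2011 and is no longer updated.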

Measured: carcinogen call

O=C(O)/C=C/c1ccc(O)c(O)c1
inactive: Species: MOUSE, Strain/Sex: B6C3F1/FEMALE, Route: ORAL, Dose: 0, 2% IN POWDERED BASAL DIET FOR 96 WK (STUDY DURATION: 96 WK) inactive; negative | Species: MOUSE, Strain/Sex: B6C3F1/MALE, Route: ORAL, Dose: 0, 2% IN POWDERED BASAL DIET FOR 96 WK (STUDY DURATION: 96 WK) inactive; negative
active: Species: MOUSE, Strain/Sex: B6C3F1/FEMALE, Route: ORAL, Dose: 0, 2% IN DIET FOR 96 WK (STUDY DURATION: 96 WK), Tumor Site: Type of Lesion: KIDNEY (TUBULAR CELL): ADENOMA active; positive | Species: MOUSE, Strain/Sex: B6C3F1/MALE, Route: ORAL, Dose: 0, 2% IN DIET FOR 96 WK (STUDY DURATION: 96 WK), Tumor Site: Type of Lesion: LUNG (ALVEOLAR CELL): ADENOMA OR ADENOCARCINOMA active; positive | Species: RAT, Strain/Sex: F344/FEMALE, Route: ORAL, Dose: 0, 2% IN DIET FOR 104 WK (STUDY DURATION: 104 WK), Tumor Site: Type of Lesion: FORESTOMACH: PAPILLOMA, CARCINOMA active; positive | Species: RAT, Strain/Sex: F344/FEMALE, Route: ORAL, Dose: 0, 2% IN DIET FOR 104 WK (STUDY DURATION: 104 WK), Tumor Site: Type of Lesion: FORESTOMACH: SQUAMOUS CELL CARCINOMA active; positive | Species: RAT, Strain/Sex: F344/FEMALE, Route: ORAL, Dose: 0, 2% IN POWDERED BASAL DIET FOR 104 WK (STUDY DURATION: 104 WK), Tumor Site: Type of Lesion: FORESTOMACH: PAPILLOMA, SQUAMOUS CELL CARCINOMA active; positive | Species: RAT, Strain/Sex: F344/MALE, Route: ORAL, Dose: 0, 0.4% IN DIET FOR DURATION OF STUDY (STUDY DURATION: 104 WK), Tumor Site: Type of Lesion: FORESTOMACH: PAPILLOMA active; positive | Species: RAT, Strain/Sex: F344/MALE, Route: ORAL, Dose: 0, 2% IN DIET FOR 104 WK (STUDY DURATION: 104 WK), Tumor Site: Type of Lesion: FORESTOMACH: PAPILLOMA, CARCINOMA active; positive | Species: RAT, Strain/Sex: F344/MALE, Route: ORAL, Dose: 0, 2% IN DIET FOR 104 WK (STUDY DURATION: 104 WK), Tumor Site: Type of Lesion: FORESTOMACH: SQUAMOUS CELL CARCINOMA active; positive | Species: RAT, Strain/Sex: F344/MALE, Route: ORAL, Dose: 0, 2% IN POWDERED BASAL DIET FOR 104 WK (STUDY DURATION: 104 WK), Tumor Site: Type of Lesion: FORESTOMACH: PAPILLOMA, SQUAMOUS CELL CARCINOMA active; positive | Species: RAT, Strain/Sex: F344/MALE, Route: ORAL, Dose: 2% IN THE DIET FOR 104 WK (STUDY DURATION: 104 WK), Tumor Site: Type of Lesion: FORESTOMACH: PAPILLOMA, SQUAMOUS CELL CARCINOMA active; positive

O=S(=O)([O-])[O-].[Ni+2]
inactive: Species: MOUSE, Strain/Sex: B6C3F1/FEMALE, Route: INHALATION, Dose: 0, 0.25, 0.5, 1 MG/M3 6 HR/D 5 D/WK FOR 104 WK (STUDY DURATION: 105 WK), Dose: 0, 0.25, 0.5, 1 MG/M3 6 HR/D 5 D/WK FOR 104 WK (STUDY DURATION: 105 WK) inactive; negative | Species: MOUSE, Strain/Sex: B6C3F1/MALE, Route: INHALATION, Dose: 0, 0.25, 0.5, 1 MG/M3 6 HR/D 5 D/WK FOR 104 WK (STUDY DURATION: 105 WK), Dose: 0, 0.25, 0.5, 1 MG/M3 6 HR/D 5 D/WK FOR 104 WK (STUDY DURATION: 105 WK) inactive; negative | Species: RAT, Strain/Sex: F344/FEMALE, Route: INHALATION, Dose: 0, 0.12, 0.25, 0.5 MG/M3 6 HR/D 5 D/WK FOR 104 WK (STUDY DURATION: 105 WK), Dose: 0, 0.12, 0.25, 0.5 MG/M3 6 HR/D 5 D/WK FOR 104 WK (STUDY DURATION: 105 WK) inactive; negative | Species: RAT, Strain/Sex: F344/MALE, Route: INHALATION, Dose: 0, 0.12, 0.25, 0.5 MG/M3 6 HR/D 5 D/WK FOR 104 WK (STUDY DURATION: 105 WK), Dose: 0, 0.12, 0.25, 0.5 MG/M3 6 HR/D 5 D/WK FOR 104 WK (STUDY DURATION: 105 WK) inactive; negative | Species: RAT, Strain/Sex: F344/MALE, Route: INTRAMUSCULAR, Dose: 0, 63, 83, UMOL/KG GIVEN IN 14 INJECTIONS OVER 26 D (STUDY DURATION; 2 YR), Dose: 0, 63, 83, UMOL/KG GIVEN IN 14 INJECTIONS OVER 26 D (STUDY DURATION; 2 YR) inactive; negative | Species: Rat, Strain/Sex: Fischer 344/Female (50/group), Route: Oral, Dose: 0, 10, 30, 50 mg/kg/day by gavage once daily for 104 wk, Dose: 0, 10, 30, 50 mg/kg/day by gavage once daily for 104 wk inactive; negative | Species: Rat, Strain/Sex: Fischer 344/Male (50/group), Route: Oral, Dose: 0, 10, 30, 50 mg/kg/day by gavage once daily for 104 wk, Dose: 0, 10, 30, 50 mg/kg/day by gavage once daily for 104 wk inactive; negative

OCC1CO1 (centres undefined)
active: Species: MOUSE, Strain/Sex: B6C3F1/FEMALE, Route: GAVAGE, Dose: 0, 25, 50 MG/KG IN DISTILLED WATER 5 D/WK FOR 103 WK (STUDY DURATION: 105 WK), Dose: 0, 25, 50 MG/KG IN DISTILLED WATER 5 D/WK FOR 103 WK (STUDY DURATION: 105 WK), Tumor Site: Type of Lesion: SUBCUTANEOUS TISSUE: SARCOMA, SARCOMA OR FIBROSARCOMA, MAMMARY GLAND: ADENOCARCINOMA, ADENOMA OR FIBROADENOMA OR ADENOCA active; positive | Species: MOUSE, Strain/Sex: B6C3F1/MALE, Route: GAVAGE, Dose: 0, 25, 50 MG/KG IN DISTILLED WATER 5 D/WK FOR 103 WK (STUDY DURATION: 105 WK), Dose: 0, 25, 50 MG/KG IN DISTILLED WATER 5 D/WK FOR 103 WK (STUDY DURATION: 105 WK), Tumor Site: Type of Lesion: SKIN: SQUAMOUS CELL PAPILLOMA, LUNG: ALVEOLAR/BRONCHIOLAR ADENOMA OR CARCINOMA, LIVER: HEPATOCELLULAR ADENOMA, HEPATOCEL, Tumor Site: Type of Lesion: SKIN: SQUAMOUS CELL PAPILLOMA, LUNG: ALVEOLAR/BRONCHIOLAR ADENOMA OR CARCINOMA, LIVER: HEPATOCELLULAR ADENOMA, HEPATOCEL active; positive | Species: RAT, Strain/Sex: F344/FEMALE, Route: GAVAGE, Dose: 0, 37.5, 75 MG/KG IN DISTILLED WATER 5 D/WK FOR 103 WK (STUDY DURATION: 104 WK), Dose: 0, 37.5, 75 MG/KG IN DISTILLED WATER 5 D/WK FOR 103 WK (STUDY DURATION: 104 WK), Tumor Site: Type of Lesion: HEMATOPOIETIC SYSTEM: MONONUCLEAR CELL LEUKEMIA, ORAL CAVITY (MOUTH OR TONGUE): SQUAMOUS CELL PAPILLOMA OR CARCINOMA, FO, Tumor Site: Type of Lesion: HEMATOPOIETIC SYSTEM: MONONUCLEAR CELL LEUKEMIA, ORAL CAVITY (MOUTH OR TONGUE): SQUAMOUS CELL PAPILLOMA OR CARCINOMA, FO active; positive | Species: RAT, Strain/Sex: F344/MALE, Route: GAVAGE, Dose: 0, 37.5, 75 MG/KG IN DISTILLED WATER 5 D/WK FOR 103 WK (STUDY DURATION: 104 WK), Dose: 0, 37.5, 75 MG/KG IN DISTILLED WATER 5 D/WK FOR 103 WK (STUDY DURATION: 104 WK), Tumor Site: Type of Lesion: SKIN: SEBACEOUS GLAND ADENOMA OR BASAL CELL TUMOR OR SEBACEOUS GLAND ADENOCARCINOMA, FORESTOMACH: SQUAMOUS CELL PAPILLOM active; positive

C[C@]12CC[C@@H]3c4ccc(O)c(O)c4CC[C@H]3[C@@H]1CC[C@@H]2O
inactive: Species: Mouse, Strain/Sex: CD-1/Female (45/experimental group; 40/control group), Route: Subcutaneous, Dose: 0, 2 ug in peanut oil, dosed on days 1-5 of life and retained for 1.5 (4 animals), 3 (4 animals), 6 (4 animals), 9 (4 an, Dose: 0, 2 ug in peanut oil, dosed on days 1-5 of life and retained for 1.5 (4 animals), 3 (4 animals), 6 (4 animals), 9 (4 an, Tumor Site: Type of Lesion: Uterus and ovaries examined inactive; negative; nonneoplastic changes observed
active: Species: MOUSE, Strain/Sex: CD-1/FEMALE, Route: SUBCUTANEOUS, Dose: 0, 2 UG/D IN CORN OIL ON DAYS 1-5 OF LIFE (STUDY DURATION: 12-18 WK), Tumor Site: Type of Lesion: UTERUS: ADENOCARCINOMA active; positive

CC1(C)CN=C(NN=C(/C=C/c2ccc(C(F)(F)F)cc2)/C=C/c2ccc(C(F)(F)F)cc2)NC1
inactive: Species: Mouse, Strain/Sex: CD-1/Female (?/Group), Route: Oral, Dose: 0, 25, 50, 100, 200 ppm of 92% hydramethylnon in diet for 18 mo, study duration 18 mo, Dose: 0, 25, 50, 100, 200 ppm of 92% hydramethylnon in diet for 18 mo, study duration 18 mo inactive; negative | Species: Mouse, Strain/Sex: CD-1/Male (?/Group), Route: Oral, Dose: 0, 25, 50, 100, 200 ppm of 92% hydramethylnon in diet for 18 mo, study duration 18 mo, Dose: 0, 25, 50, 100, 200 ppm of 92% hydramethylnon in diet for 18 mo, study duration 18 mo inactive; negative | Species: Rat, Strain/Sex: CD/Female (50/Group), Route: Oral, Dose: 0, 25, 50, 100, 200 ppm in diet for 2 yr, study duration 2 yr, Dose: 0, 25, 50, 100, 200 ppm in diet for 2 yr, study duration 2 yr inactive; negative | Species: Rat, Strain/Sex: CD/Male (50/Group), Route: Oral, Dose: 0, 25, 50, 100, 200 ppm in diet for 2 yr, study duration 2 yr, Dose: 0, 25, 50, 100, 200 ppm in diet for 2 yr, study duration 2 yr inactive; negative
